Values joined by “and” are separate entries in the source; they are usually repeats but may differ in a detail not shown here. Identical values can stand only once. Toxic doses and inconclusive results are not listed. The calls were made as follows: active = survival T/C of 150% or more; inactive = T/C below 125% in these data.
Test system: BDF1 mice, Lewis lung carcinoma iv, survival T/C
Experiment: NCI In Vivo Anticancer Drug Screen. Data for tumor model Lewis Lung Carcinoma (intravenous) in B6D2F1 (BDF1) mice
Details: endpoint: median survival time, higher = longer survival
Experimental: The antitumor activity of compounds was measured in mice bearing transplantable tumors. Survival or tumor size were measured and the results are expressed as the measurement made in the treated group (T) divided by the measurement made in the vehicle treated control group (C). The tumor model used in this assay is Lewis Lung Carcinoma (intravenous) in B6D2F1 (BDF1) mice

[1] = dose: 2.0 mg/kg/injection, schedule: Q01DX009 (ip), vehicle: saline
[2] = dose: 4.0 mg/kg/injection, schedule: Q01DX009 (ip), vehicle: saline
[3] = dose: 3.12 mg/kg/injection, schedule: Q01DX009 (ip), vehicle: Klucel (hydroxypropylcellulose) (HPC)
[4] = dose: 3.12 mg/kg/injection, schedule: Q01DX009 (ip), vehicle: saline
[5] = dose: 50.0 mg/kg/injection, schedule: Q01DX009 (ip), vehicle: saline with Tween-80
[6] = dose: 100.0 mg/kg/injection, schedule: Q01DX009 (ip), vehicle: saline with Tween-80
[7] = dose: 6.25 mg/kg/injection, schedule: Q01DX009 (ip), vehicle: suspension in saline
[8] = dose: 12.5 mg/kg/injection, schedule: Q01DX009 (ip), vehicle: suspension in saline
[9] = dose: 25.0 mg/kg/injection, schedule: Q01DX009 (ip), vehicle: suspension in saline
[10] = dose: 50.0 mg/kg/injection, schedule: Q01DX009 (ip), vehicle: suspension in saline
[11] = dose: 12.5 mg/kg/injection, schedule: Q01DX009 (ip), vehicle: Klucel (hydroxypropylcellulose) (HPC)
[12] = dose: 25.0 mg/kg/injection, schedule: Q01DX009 (ip), vehicle: Klucel (hydroxypropylcellulose) (HPC)
[13] = dose: 50.0 mg/kg/injection, schedule: Q01DX009 (ip), vehicle: Klucel (hydroxypropylcellulose) (HPC)
[14] = dose: 12.5 mg/kg/injection, schedule: Q01DX009 (ip), vehicle: saline with Tween-80
[15] = dose: 25.0 mg/kg/injection, schedule: Q01DX009 (ip), vehicle: saline with Tween-80
[16] = dose: 100.0 mg/kg/injection, schedule: Q01DX009 (ip), vehicle: saline
[17] = dose: 100.0 mg/kg/injection, schedule: Q01DX009 (ip), vehicle: Klucel (hydroxypropylcellulose) (HPC)
[18] = dose: 200.0 mg/kg/injection, schedule: Q01DX009 (ip), vehicle: Klucel (hydroxypropylcellulose) (HPC)
[19] = dose: 200.0 mg/kg/injection, schedule: Q01DX009 (ip), vehicle: saline with Tween-80
[20] = dose: 400.0 mg/kg/injection, schedule: Q01DX009 (ip), vehicle: saline with Tween-80

Measured: T/C

Cc1c(N)nc([C@H](CC(N)=O)NC[C@H](N)C(N)=O)nc1C(=O)N[C@H](C(=O)N[C@H](C)[C@@H](O)[C@H](C)C(=O)N[C@H](C(=O)NCCc1nc(-c2nc(C(=O)NCCC[S+](C)C)cs2)cs1)[C@@H](C)O)C(OC1OC(CO)C(O)C(O)C1OC1OC(CO)C(O)C(OC(N)=O)C1O)c1cnc[nH]1 (some centres not stated)
inactive: [1] 113 % of control | [2] 115 % of control | dose: 12.0 mg/kg/injection, schedule: Q04DX003 (ip), vehicle: saline 105 % of control and 115 % of control | dose: 18.0 mg/kg/injection, schedule: Q04DX003 (ip), vehicle: saline 115 % of control (2×) and 116 % of control | dose: 27.0 mg/kg/injection, schedule: Q04DX003 (ip), vehicle: saline 109 % of control | dose: 40.0 mg/kg/injection, schedule: Q04DX003 (ip), vehicle: saline 113 % of control | dose: 60.0 mg/kg/injection, schedule: Q04DX003 (ip), vehicle: saline 115 % of control

O=C1C(=O)c2cccnc2-c2ncccc21
inactive: dose: 0.78 mg/kg/injection, schedule: Q01DX009 (ip), vehicle: Klucel (hydroxypropylcellulose) (HPC) 116 % of control | dose: 1.56 mg/kg/injection, schedule: Q01DX009 (ip), vehicle: Klucel (hydroxypropylcellulose) (HPC) 91 % of control | [3] 100 % of control

CN(C)C(=O)c1cccc(COc2ccc(N3C(N)=NC(N)=NC3(C)C)cc2Cl)c1
inactive: dose: 0.09 mg/kg/injection, schedule: Q01DX009 (ip), vehicle: saline 95 % of control | dose: 0.19 mg/kg/injection, schedule: Q01DX009 (ip), vehicle: saline 108 % of control | dose: 0.39 mg/kg/injection, schedule: Q01DX009 (ip), vehicle: saline 95 % of control | dose: 0.78 mg/kg/injection, schedule: Q01DX009 (ip), vehicle: saline 101 % of control | dose: 1.56 mg/kg/injection, schedule: Q01DX009 (ip), vehicle: saline 92 % of control | [4] 118 % of control

C[C@@H]1CN(C(=O)CCOS(C)(=O)=O)[C@@H](C)CN1C(=O)CCOS(C)(=O)=O
inactive: [5] 93 % of control | [6] 101 % of control

CCOC(=O)c1c[nH]c2oc(/C=N/N3CC(CN4CCOCC4)OC3=O)cc2c1=O (configuration not stated)
inactive: [7] 108 % of control | [8] 105 % of control | [9] 104 % of control | [10] 114 % of control | dose: 100.0 mg/kg/injection, schedule: Q01DX009 (ip), vehicle: suspension in saline 106 % of control

CCc1ncnc2cc(OCC3CO3)c(OC)cc12 (configuration not stated)
inactive: [7] 98 % of control | [8] 104 % of control | [9] 93 % of control

CS(C)=O
inactive: dose: 1.5 grams/kg/injection, schedule: Q01DX009 (ip), vehicle: saline 98 % of control | dose: 3.0 grams/kg/injection, schedule: Q01DX009 (ip), vehicle: saline 96 % of control | dose: 6.0 grams/kg/injection, schedule: Q01DX009 (ip), vehicle: saline 96 % of control

[N-]=[N+]=C1N=CN=C1c1ncn[nH]1
inactive: [3] 98 % of control | dose: 6.25 mg/kg/injection, schedule: Q01DX009 (ip), vehicle: Klucel (hydroxypropylcellulose) (HPC) 100 % of control | [11] 95 % of control | [12] 120 % of control | [13] 97 % of control

C/C(=N\NC(N)=O)c1cccc(/C(C)=N/NC(N)=O)n1
inactive: dose: 6.25 mg/kg/injection, schedule: Q01DX009 (ip), vehicle: saline with Tween-80 104 % of control | [14] 100 % of control | [15] 98 % of control | [5] 103 % of control | [6] 106 % of control

CC(CNC(=O)CCOS(C)(=O)=O)NC(=O)CCOS(C)(=O)=O (configuration not stated)
inactive: [16] 106 % of control

COc1ccc(CCNC(C)=O)cc1OC
inactive: [12] 90 % of control | [13] 94 % of control | [17] 103 % of control | [18] 105 % of control

O[C@H](CN1CC1)[C@@H](O)CN1CC1
inactive: dose: 0.13 mg/kg/injection, schedule: Q01DX009 (ip), vehicle: saline 111 % of control | dose: 0.25 mg/kg/injection, schedule: Q01DX009 (ip), vehicle: saline 121 % of control

C[C@]12CC[C@@H]3c4ccc(OC(=O)Cc5ccc(N(CCCl)CCCl)cc5)cc4CC[C@H]3[C@@H]1CC[C@@H]2OC(=O)Cc1ccc(N(CCCl)CCCl)cc1
inactive: [14] 97 % of control | [15] 104 % of control | [5] 99 % of control | [6] 91 % of control | [19] 98 % of control | [20] 100 % of control

COC1/C=C/C=C(/C)Cc2cc(O)c(Cl)c(c2)N(C)C(=O)CC(OC(=O)C(C)C)C2(C)OC2C(C)C2CC1(O)NC(=O)O2 (configuration not stated)
inactive: dose: 0.12 mg/kg/injection, schedule: Q01DX009 (ip), vehicle: saline + alcohol 106 % of control | dose: 0.25 mg/kg/injection, schedule: Q01DX009 (ip), vehicle: saline + alcohol 110 % of control | dose: 0.5 mg/kg/injection, schedule: Q01DX009 (ip), vehicle: saline + alcohol 105 % of control | dose: 1.0 mg/kg/injection, schedule: Q01DX009 (ip), vehicle: saline + alcohol 105 % of control

COc1ccc2ccccc2c1C1NC(=O)c2ccccc2N1 (configuration not stated)
inactive: [11] 90 % of control | [12] 92 % of control | [13] 92 % of control | [17] 96 % of control | [18] 98 % of control | dose: 400.0 mg/kg/injection, schedule: Q01DX009 (ip), vehicle: Klucel (hydroxypropylcellulose) (HPC) 102 % of control

NC(=O)c1[nH]nc(C2OC(CO)C(O)C2O)c1O (configuration not stated)
inactive: dose: 78.13 micrograms/kg/injection, schedule: Q01DX009 (ip), vehicle: water 98 % of control | dose: 156.25 micrograms/kg/injection, schedule: Q01DX009 (ip), vehicle: water 118 % of control | dose: 312.5 micrograms/kg/injection, schedule: Q01DX009 (ip), vehicle: water 87 % of control | dose: 625.0 micrograms/kg/injection, schedule: Q01DX009 (ip), vehicle: water 122 % of control

Nc1nc2n[nH]nc2c(=O)[nH]1
inactive: [9] 93 % of control | [10] 98 % of control

CC[C@H]1CN2CCc3cc(OC)c(OC)cc3[C@@H]2C[C@@H]1C[C@H]1NCCc2cc(O)c(OC)cc21
inactive: [1] 109 % of control | [2] 100 % of control | dose: 8.0 mg/kg/injection, schedule: Q01DX009 (ip), vehicle: saline 116 % of control | dose: 16.0 mg/kg/injection, schedule: Q01DX009 (ip), vehicle: saline 116 % of control

Cc1oc2c(C)c3oc(=O)cc(C)c3cc2c1CCl
inactive: [14] 102 % of control | [15] 101 % of control | [5] 95 % of control

CCCCCCCCCCCCCCCCCCCCCC(=O)Nc1ccn(C2OC(CO)C(O)C2O)c(=O)n1 (configuration not stated)
inactive: [15] 94 % of control | [5] 124 % of control | [6] 113 % of control | [19] 120 % of control

C=C(C)[C@@H]1CCc2c(O)c(O)c(=O)cc(C)c2C1
inactive: [4] 111 % of control | dose: 6.25 mg/kg/injection, schedule: Q01DX009 (ip), vehicle: saline 106 % of control | dose: 12.5 mg/kg/injection, schedule: Q01DX009 (ip), vehicle: saline 96 % of control | dose: 25.0 mg/kg/injection, schedule: Q01DX009 (ip), vehicle: saline 101 % of control | dose: 50.0 mg/kg/injection, schedule: Q01DX009 (ip), vehicle: saline 102 % of control | [16] 101 % of control

CC(=O)N(C)O
inactive: [15] 102 % of control | [5] 90 % of control | [6] 98 % of control | [19] 95 % of control

Cc1cc(O)c(C(C)C)cc1S(=O)(=O)O (tested in a mixture with another compound)
inactive: [17] 90 % of control | [18] 102 % of control

O=C(N/N=C\c1cc(Br)cc(Br)c1O)N/N=C/c1cc(Br)cc(Br)c1O
inactive: [14] 91 % of control | [15] 96 % of control | [5] 98 % of control | [6] 96 % of control | [19] 98 % of control | [20] 96 % of control
